Data: ChEMBL document CHEMBL5614402, “Discovery of novel pyrazolo[1,5-a]pyrimidine derivatives as potent reversal agents against ABCB1-mediated multidrug resistance” (Eur J Med Chem, 2024)

How the values were obtained:
[1] = system: NCI/ADR-RES; assay: Antiproliferative activity against human MCF7ADR cells incubated for 72 hrs by MTT assay; assay type: functional, cell-based
[2] = system: MCF7; assay: Antiproliferative activity against human MCF7 cells incubated for 72 hrs by MTT assay; assay type: functional, cell-based; details: MCF7, 72 h
[3] = system: NCI/ADR-RES; assay: Reversal of paclitaxel resistance in human MCF7ADR cells assessed as reduction in paclitaxel IC50 at 5 uM pretreated with compound for 4 hrs followed by paclitaxel addition and measured after 72 hrs by MTT assay (reference value: 6.68 +/- 0.35 microM); assay type: functional, cell-based
[4] = system: NCI/ADR-RES; assay: Reversal of paclitaxel resistance in human MCF7ADR cells assessed as reversal fold by measuring ratio of paclitaxel IC50 to paclitaxel IC50 in presence of test compound at 5 uM incubated for 72 hrs by MTT assay; assay type: functional
[5] = system: MCF7; assay: Antiproliferative activity against human MCF7 cells assessed as survival rate at 5 uM incubated for 72 hrs by MTT assay; assay type: functional; details: read-out: Survival
[6] = system: NCI/ADR-RES; assay: Antiproliferative activity against human MCF7ADR cells assessed as survival rate at 5 uM incubated for 72 hrs by MTT assay; assay type: functional; details: read-out: Survival

SMILES | IC50 [1] [µM] | IC50 [2] [µM] | IC50 [3] [nM] | Ratio [4] | viability at 5 µM [5] [%] | viability at 5 µM [6] [%]
COc1cc(-c2c(-c3ccc(Br)cc3)c(C)nc3cc(-c4cccs4)nn23)cc(OC)c1OC | > 20 | 14.4 | 48 | 139.16 | 94.8 | 94.2
COc1ccc(-c2c(C)nc3cc(-c4cccs4)nn3c2-c2cc(OC)c(OC)c(OC)c2)cc1OC | > 20 | > 20 | 31 | 215.48 | 94.1 | 94.6
COc1ccc(-c2c(C)nc3cc(-c4ccco4)nn3c2-c2cc(OC)c(OC)c(OC)c2)cc1OC | > 20 | > 20 | 87 | 76.78 | 92.4 | 97.1
COc1cc(-c2c(-c3ccc(Cl)cc3)c(C)nc3cc(-c4cccs4)nn23)cc(OC)c1OC | > 20 | > 20 | 82 | 81.46 | 98.2 | 94.2
COc1cc(-c2c(C)nc3cc(C)nn3c2-c2cc(OC)c(OC)c(OC)c2)cc(OC)c1OC | > 20 | > 20 | 460 | 14.52 | 94.4 | 96.6
COc1ccc(-c2c(C)nc3cc(-c4ccco4)nn3c2-c2cc(OC)c(OC)c(OC)c2)cc1 | > 20 | 9.53 | 100 | 66.8 | 90.8 | 93.1
COc1ccc(-c2c(C)nc3cc(-c4ccccc4)nn3c2-c2cc(OC)c(OC)c(OC)c2)cc1 | > 20 | 7.94 | 48 | 151.81 | 90.2 | 89.2
COc1ccc(-c2c(C)nc3cc(-c4cccs4)nn3c2-c2cc(OC)c(OC)c(OC)c2)cc1 | > 20 | > 20 | 49 | 136.32 | 93.6 | 85.1
COc1ccc(-c2c(C)nc3cc(C)nn3c2-c2cc(OC)c(OC)c(OC)c2)cc1 | > 20 | > 20 | 820 | 8.14 | > 99 | 95.2
COc1cc(-c2c(-c3ccc(Cl)cc3)c(C)nc3cc(-c4ccccc4)nn23)cc(OC)c1OC | > 20 | > 20 | 74 | 90.27 | 94.2 | 90.3
COc1cc(-c2c(-c3ccc(Br)cc3)c(C)nc3cc(-c4ccco4)nn23)cc(OC)c1OC | > 20 | > 20 | 5860 | 1.14 | 94.5 | 93.6
COc1cc(-c2c(-c3ccc(Cl)cc3)c(C)nc3cc(-c4ccco4)nn23)cc(OC)c1OC | > 20 | > 20 | 4300 | 1.55 | 95.8 | 94.7
COc1cc(-c2c(C)nc3cc(-c4ccco4)nn3c2-c2cc(OC)c(OC)c(OC)c2)cc(OC)c1OC | > 20 | > 20 | 44 | 151.81 | 95.1 | 89.9
COc1cc(-c2c(C)nc3ccnn3c2-c2cc(OC)c(OC)c(OC)c2)cc(OC)c1OC | > 20 | > 20 | 2120 | 3.15 | > 99 | > 99
COc1ccc(-c2c(C)nc3cc(C#N)nn3c2-c2cc(OC)c(OC)c(OC)c2)cc1 | > 20 | > 20 | 620 | 10.77 | 93.9 | 90.6
COc1ccc(-c2c(C)nc3cc(C4CC4)nn3c2-c2cc(OC)c(OC)c(OC)c2)cc1 | > 20 | > 20 | 120 | 51.28 | > 99 | 95.1
COc1ccc(-c2c(C)nc3ccnn3c2-c2cc(OC)c(OC)c(OC)c2)cc1OC | > 20 | > 20 | 2350 | 2.84 | > 99 | > 99
COc1ccc(-c2c(C)nc3cc(Br)nn3c2-c2cc(OC)c(OC)c(OC)c2)cc1 | > 20 | > 20 | 1400 | 4.77 | 95.4 | 91.2
COc1cc(-c2c(C)nc3cc(C4CC4)nn3c2-c2cc(OC)c(OC)c(OC)c2)cc(OC)c1OC | > 20 | > 20 | 100 | 66.8 | 95.6 | 90.5
COc1cc(-c2c(-c3ccc(F)cc3)c(C)nc3cc(-c4ccco4)nn23)cc(OC)c1OC | > 20 | > 20 | 180 | 37.11 | 91.6 | 93.8
COc1cc(-c2c(-c3ccc(F)cc3)c(C)nc3cc(-c4cccs4)nn23)cc(OC)c1OC | > 20 | > 20 | 120 | 55.67 | 95.6 | 90.7
CCc1cc2nc(C)c(-c3ccc(OC)cc3)c(-c3cc(OC)c(OC)c(OC)c3)n2n1 | > 20 | > 20 | 240 | 27.83 | > 99 | > 99
COc1cc(-c2c(C)nc3cc(-c4ccccc4)nn3c2-c2cc(OC)c(OC)c(OC)c2)cc(OC)c1OC | > 20 | > 20 | 30 | 222.66 | 96.2 | 93.5
COc1cc(-c2c(-c3ccc(Br)cc3)c(C)nc3cc(-c4ccccc4)nn23)cc(OC)c1OC | > 20 | > 20 | 53 | 126.03 | 95.2 | 95.1
COc1ccc(-c2c(C)nc3ccnn3c2-c2cc(OC)c(OC)c(OC)c2)cc1 | > 20 | > 20 | 3120 | 2.14 | > 99 | > 99
COc1ccc(-c2c(C)nc3cc(-c4ccccc4)nn3c2-c2cc(OC)c(OC)c(OC)c2)cc1OC | > 20 | > 20 | 48 | 139.16 | 92.7 | 89.2
